Patent US10308628B2, “Heterocyclic compounds and methods for their use” (NOVARTIS AG, priority 2015, dated 2019)

Biological target: human AT2 receptor (Homo sapiens (Human), UniProt P50052)
Assay: AT2 receptor binding assay ([125I]CGP 42112A displacement, CHO-K1 cell membranes)
Settings: membranes of CHO-K1 cells stably expressing human AT2 receptor; 0.05 nM [125I]CGP 42112A; Ki derived from IC50 by Cheng-Prussoff equation
Description: Reagents were purchased from Sigma-Aldrich, unless otherwise specified. Dialyzed fetal bovine serum (FBS) was from Life Technologies (cat. no. 10073772). Valiscreen® human angiotensin AT2 receptor cell line (cat. no. ES-070-C), [^125I]CGP 42112A (cat. no. NEX324025UC) and MicroScint™ 40 (cat. no. 6013641) were purchased from PerkinElmer. CGP 42112A (cat. no. 2569) and PD 123,319 ditrifluoroacetate (cat. no. 1361) were from Tocris Biosciences.
6. […] Compound Preparation
Compounds were prepared from 10 mM stock solutions in 100% DMSO. Dilutions were made using electronic multichannel pipettes.
Controls • Total binding (high control) was determined in the absence of unlabelled ligand. A solution of 10% DMSO in assay buffer was prepared. • Non-specific binding (low control) was determined in the presence of a vast excess (10 μM) of PD 123,319. 1 mM stock solution of PD 123,319 in water was diluted […] with 10% DMSO in assay buffer.
15 μL compound solution was transferred to duplicate wells of assay plate. 5 compounds were tested per plate. 15 μL control solutions were transferred to columns 1 and 12 of assay plate.

human AT2 receptor, sequence (P50052 whole entry): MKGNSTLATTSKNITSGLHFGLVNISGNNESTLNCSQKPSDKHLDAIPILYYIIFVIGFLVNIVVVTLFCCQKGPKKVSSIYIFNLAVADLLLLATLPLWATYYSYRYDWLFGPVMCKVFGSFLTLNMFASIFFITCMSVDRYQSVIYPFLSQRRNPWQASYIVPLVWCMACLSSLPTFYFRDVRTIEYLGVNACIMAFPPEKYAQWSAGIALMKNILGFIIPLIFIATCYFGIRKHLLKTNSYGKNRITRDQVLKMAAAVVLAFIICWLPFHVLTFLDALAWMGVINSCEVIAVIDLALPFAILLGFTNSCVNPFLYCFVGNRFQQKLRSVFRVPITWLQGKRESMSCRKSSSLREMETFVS

SMILES	Ki
COc1ccc2c(c1)CCCCN2[C@@H]1CCN(C(=O)C(c2ccccc2)c2ccccc2)[C@H](C(=O)O)C1 [Compound 5, (2S,4R)-1-(2,2-Diphenylacetyl)-4-(7-methoxy-2,3,4,5-tetrahydro-1H-benzo[b]azepin-1-yl)piperidine-2-carboxylic acid]	9 nM
O=C(O)[C@@H]1C[C@H](N2CCCOc3cc(F)c(F)cc32)CCN1C(=O)C(c1ccccc1)c1ccccc1 [Compound 1, (2S,4R)-4-(7,8-Difluoro-3,4-dihydrobenzo[b][1,4]oxazepin-5 (2H)-yl)-1-(2,2-diphenylacetyl)piperidine-2-carboxylic acid]	7 nM
O=C(O)[C@@H]1C[C@H](N2CCCOc3ccccc32)CCN1C(=O)C(c1ccccc1)c1ccccc1 [Compound 4, (2S,4R)-4-(3,4-Dihydrobenzo[b][1,4]oxazepin-5(2H)-yl)-1-(2,2-diphenylacetyl)piperidine-2-carboxylic acid]	15 nM

The remaining lines, values ahead:

Ki	SMILES
9 nM	O=C(O)[C@@H]1C[C@H](N2CCCOc3cc(F)ccc32)CCN1C(=O)C(c1ccccc1)c1ccccc1 [Compound 2, (2S,4R)-1-(2,2-Diphenylacetyl)-4-(8-fluoro-3,4 dihydrobenzo[b][1,4]oxazepin-5(2H)-yl)piperidine-2-carboxylic acid]
17 nM	O=C(O)[C@@H]1C[C@H](N2CCCOc3ccc(F)cc32)CCN1C(=O)C(c1ccccc1)c1ccccc1 [Compound 3, (2S,4R)-1-(2,2-Diphenylacetyl)-4-(7-fluoro-3,4dihydrobenzo[b][1,4]oxazepin-5(2H)-yl)piperidine-2-carboxylic acid]
